US8097650B2, “Method of treating a condition associated with phosphorylation of TASK-1” (The Trustees of Columbia University In The City of New York, priority 2005, dated 2012)
Like-named read-outs stand apart in the source and are kept apart here.

What was measured:
[1] = target: T1, TASK-1 (Mus musculus, UniProt O35111); test: C-PAF-sensitive steady-state current in murine ventricular myocytes (voltage clamp); type: cell-based
T1 construct: endogenous in cells; host or cells: adult mouse ventricular myocytes (C57/B16 background; WT or PAFR KO)
T1 sequence (O35111 whole entry): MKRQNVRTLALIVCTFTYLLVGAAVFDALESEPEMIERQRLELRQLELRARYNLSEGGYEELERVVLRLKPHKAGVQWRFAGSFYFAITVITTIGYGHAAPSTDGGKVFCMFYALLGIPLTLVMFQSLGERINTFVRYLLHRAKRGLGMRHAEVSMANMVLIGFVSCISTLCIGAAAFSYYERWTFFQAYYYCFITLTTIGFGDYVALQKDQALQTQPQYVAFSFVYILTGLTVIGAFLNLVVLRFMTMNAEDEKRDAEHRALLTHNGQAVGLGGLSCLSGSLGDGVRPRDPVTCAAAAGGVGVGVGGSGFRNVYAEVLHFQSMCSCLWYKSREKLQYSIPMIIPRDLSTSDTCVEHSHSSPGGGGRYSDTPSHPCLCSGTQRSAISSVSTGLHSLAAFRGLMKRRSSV
Procedure: (§1) Adult mice, 2-3 months old, were anesthetized with ketamine/xylazine and their hearts were removed according to protocols approved by the Columbia University-IACUC. Experiments were performed on single rod-shaped, quiescent ventricular myocytes dissociated using a standard retrograde collagenase perfusion (Kuznetsov V et al. (1995) Circ Res 76: 40-52) from hearts of mice that were either wild-type (WT), or PAFR knockouts (KO). Both WT and KO mice were bred on a C57/B16 background. The derivation of the KO mice has been described previously (Hoffman, B F et al.(1996) J Cardiovasc Electrophysiol 7:120-133).
(§2) Prior to electrophysiological measurements, cells were placed into the perfusion chamber and superfused at room temperature with Tyrode's buffer (in mM: NaCl, 140; KCl, 5.4; CaCl2 1; MgCl2, Hepes, 5; Glucose, 10; pH 7.4). The whole-cell patch clamp technique was used with pipettes having resistances of 1.5-3 MΩ (intracellular solution, in mM: aspartic acid, 130; KOH, 146; NaCl, 10; CaCl2, 2; EGTA, 5; Hepes, 10; MgATP, 2; pH 7.2). Solutions of C-PAF, the PAFR antagonist, CV-6209 (Biomol) and the PKC inhibitor, bisindolylmaleimide I (BIM I; Calbiochem) were prepared in water and diluted in Tyrode's before use. […] A custom-made fast perfusion device was used to exchange the solution around the cell within 1 s (DiFrancesco et al. (1986) J Physiol 377: 61-88).
(§3) Current and voltage protocols were generated using Clampex 7.0 software applied by means of an Axopatch 200B amplifier and a Digidata 1200 interface (Axon Instruments). During voltage clamp, steady state current traces were acquired at 500 Hz and final filtered at 10 Hz. During current clamp, membrane voltage was acquired at 5 KHz and filtered at 1 KHz. Ramp clamps were conducted by imposing a voltage ramp (14 mV/s) at a 500 Hz acquisition rate with 1 kHz filtering. Data were analyzed using pCLAMP 8.0 (Axon) and Origin 6.0 (Microcal) and are presented as mean±SEM. Steady-state current was determined by computer calculation of average current over a time period of at least 5 s. In all experiments, the n value indicates the number of myocytes studied, and represents pooled data from at least 2 (voltage clamp) or 3 (current clamp) animals. Student's t-test, one-way ANOVA and χ^2 tests were used; a value of p<0.05 was considered statistically significant. Records have been corrected for the junction potential, which was measured to be 9.8 mV.

[2] = target: T1, TASK-1; test: Methanandamide-sensitive current in murine ventricular myocytes; type: cell-based
Text: as §2
Current and voltage protocols were generated using Clampex 7.0 software applied by means of an Axopatch 200B amplifier and a Digidata 1200 interface (Axon Instruments). During voltage clamp, steady state current traces were acquired at 500 Hz and final filtered at 10 Hz. […] Data were analyzed using pCLAMP 8.0 (Axon) and Origin 6.0 (Microcal) and are presented as mean±SEM. Steady-state current was determined by computer calculation of average current over a time period of at least 5 s. […] Records have been corrected for the junction potential, which was measured to be 9.8 mV.

[3] = target: PKC; details: cited from earlier work
[4] = test system: quiescent myocytes; test: Spontaneous activity in quiescent mouse ventricular myocytes (current clamp); type: cell-based
Procedure: as §1, §2, §3

[5] = test system: murine TASK-1; test: TASK-1 current expressed in CHO cells (whole-cell ramp clamp); type: cell-based, mouse
Procedure: The TASK-1 clone (provided by Professor Y. Kurachi, Osaka University) was co-transfected in CHO cells with CD8 plasmid using Lipofectamine Plus (Invitrogen) according to the manufacturer's instructions. 48 h later cells were transferred to the electrophysiology chamber and anti-CD8 coated beads (Dynal Biotech) were added to identify CD8 expressing cells. Expressing cells were voltage clamped using a ramp clamp (see below). CHO cells were used in these experiments, in part, because they express endogenous PAFR.
Chinese hamster ovary cells (CHO) were grown in F-12 medium supplemented with 10% fetal bovine serum. Twenty-four hours prior to transfection, cells were seeded into 6 well plates at 80-90% of confluence. Transfections were carried out with the GeneJammer transfection reagent (Stratagene) according to the manufacturer's instructions. Briefly, cells were washed with PBS and their medium replaced with supplemented F-12 medium (900 μl/well). For each well, GeneJammer (6 μl) was incubated with Opti-MEM (90 μl) followed by the addition of DNA (1 μg). This mixture was then added to the wells and 3 h later an additional 2 ml of supplemented F-12 medium was added. After incubating overnight, the cells were washed and their medium replaced.
Cells were either co-transfected with pCMV-TASK1 together with pEGFP-C1 (1 μg total, 3:1) or transfected with […] or T381A-pTIE (1 μg). 48 h after the transfection the cells were checked under the microscope for green fluorescence. Approximately 20% of the cells were positive for EGFP and these were then used for patch-clamp experiments. Due to the culture-to-culture variability in the expression of TASK-1 current, most comparisons were made on matched controls from the same transfection. Summary results were then obtained by pooling data from several different culture preparations.
The myocyte suspension or the coverslip with CHO cells was placed into a perfusion chamber, mounted on the stage of an inverted microscope. Unless otherwise indicated, CHO cells were superfused at room temperature with standard external Tyrode's buffer, containing (mM): NaCl, 140; KCl, 5.4; CaCl2, 1; MgCl2, 1; HEPES, 5; glucose, 10; adjusted to pH 7.4. Recordings were begun after the current reached a stable baseline (usually 3 to 4 min after initial cell rupture). In myocytes, TASK-1 current is small and exists in the presence of numerous larger K^+ currents. In order to increase the inward component of TASK-1 current and to block other potassium currents in myocytes, a modified high K^+ external solution (modified Tyrode's) was used to reduce outward rectification of TASK-1 current. The composition of this solution-was (in mM): NaCl, 100; KCl, 50; CaCl2, 1; MgCl2, 1; HEPES, 5; glucose, 10; tetraethylammonium (TEA), 1; CsCl, 5; adjusted to pH 7.4. Membrane potential and current were measured in the whole cell configuration using borosilicate glass pipettes with a tip resistance between […] and filled with a pipette solution containing (mM): aspartic acid, 130; KOH, 146; NaCl, 10; CaCl2, 2; EGTA, 5; HEPES, 10; MGATP, 2; pH 7.2. The stock solutions of C-PAF and of the PKC inhibitor, bisindolylmaleimide (BIM-I; Calbiochem), were prepared in water and diluted to the final concentrations in Tyrode's or modified Tyrode's, as appropriate. The PKC activator, PMA, was prepared in DMSO and then diluted in Tyrode's. […] Myocytes treated with the peptides were monitored continuously beginning immediately after rupture to detect the occurrence of any arrhythmias during dialysis of the peptide. Application of C-PAF to cells treated with the inhibitor peptide was started after the peptide had been permitted to dialyse into the cell (8-10 min after rupture for CHO or 10-12 min after rupture for myocytes).
The current and the voltage protocols were generated using Clampex 8.0 software applied by means of an Axopatch 200-B and a Digidata 1200 interface (Axon Instruments). […]

[6] = test system: murine TASK-1 T381A mutant; test: T381A mutant TASK-1 current in CHO cells; type: cell-based, mouse
Procedure: pCMV-TASK1 (cTBAK) consists of a 1.9 kb sequence of murine TASK-1 inserted in pcDNA3.1 (a kind gift of Dr. Yoshihisa Kurachi, University of Osaka, Japan) and has been previously described (Leonoudakis D et al. (1998) J Neurosci 18: 868-877). pEGFP-C1 and pIRES-EGFP were purchased from Clontech. pTIE (TASK1-IRES-EGFP) was constructed by inserting a 1.9 kb EcoR1 fragment from pCMV-TASK1 into EcoR1 digested pIRES-EGFP. Site-directed mutagenesis was performed on pTIE using the Quik-Change kit (Stratagene) following the manufacturer's instructions. […]
Cells were either co-transfected with pCMV-TASK1 together with pEGFP-C1 (1 μg total, 3:1) or transfected with […] or T381A-pTIE (1 μg). 48 h after the transfection the cells were checked under the microscope for green fluorescence. […]
The myocyte suspension or the coverslip with CHO cells was placed into a perfusion chamber, mounted on the stage of an inverted microscope. […] Membrane potential and current were measured in the whole cell configuration using borosilicate glass pipettes with a tip resistance between […] and filled with a pipette solution containing (mM): aspartic acid, 130; KOH, 146; NaCl, 10; CaCl2, 2; EGTA, 5; HEPES, 10; MGATP, 2; pH 7.2. […] Myocytes treated with the peptides were monitored continuously beginning immediately after rupture to detect the occurrence of any arrhythmias during dialysis of the peptide. […]

[7] = test system: human TASK-1 T383A; test: Human TASK-1 T383A mutant current in CHO cells; type: cell-based; details: Tyrode's pH 8, ramp
Text: FIGS. 24A-24B. Mutations in human TASK-1 remove the sensitivity to C-PAF and PMA when the channel is expressed in CHO cells. Two human TASK-1 (hTASK-1) mutants in which either serine-358 was converted to alanine (S358A) or threonine-383 was converted to alanine (T383A) were generated and separately expressed in CHO cells. The C-PAF-sensitive (24A) and PMA-sensitive currents (24B) were obtained in Tyrode's at pH 8 using a ramp protocol in […] configuration, essentially as described in FIG. 15. […] However, the S358A channel was not inhibited in the presence of C-PAF (24A) and the T383A channel was not inhibited by PMA (24B).

[8] = test system: murine TASK-1; details: typical, from Barbuti et al. 2002; cited from earlier work
[9] = test system: adult rat ventricular myocytes; test: Methanandamide-induced arrhythmias in cultured adult rat ventricular myocytes; type: cell-based; details: paced at 1 Hz
Procedure: FIG. 28. Methanandamide-induced arrhythmias are prevented by over expression of TREK-1 in cultured myocytes. The action potentials of cultured adult rat ventricular myocytes were recorded in current clamp mode during stimulation at 1 Hz.
The action potentials of cultured adult rat ventricular myocytes were recorded in current clamp mode during stimulation at 1 Hz.

CN(C)CCCn1cc(C2=C(c3c[nH]c4ccccc34)C(=O)NC2=O)c2ccccc21 [BIM I, bisindolylmaleimide I]
effect on C-PAF-sensitive current ([1]; BIM I 100 nM, −10 mV): completely blocked
effect of PKC inhibitor or inactive analogue on C-PAF-sensitive current ([1]; BIM I 40 and 100 nM, BIM V, −10 mV): blocked in a dose-dependent manner
effect on methanandamide-sensitive current ([2]; BIM I 100 nM, WT myocytes): significantly reduced
Ki [3]: 14 nM
quiescent WT cells that failed to respond to C-PAF ([4]; BIM I 100 nM, C-PAF 185 nM): 6 of 8
C-PAF-sensitive current in the presence of PKC inhibitor ([5]; BIM-I 100 nM, C-PAF 185 nM): no measurable C-PAF-sensitive current

CCCCCCCCCCCCCC(=O)O[C@@H]1[C@@H](C)[C@@]2(O)[C@@H](C=C(CO)C[C@]3(O)C(=O)C(C)=C[C@@H]23)[C@@H]2C(C)(C)[C@]12OC(C)=O [PMA, phorbol 12-myristate 13-acetate]
sensitivity of mutant channel to PMA [6]: nor is it sensitive to PMA treatment
inhibition of T383A channel [7]: not inhibited
TASK-1 current density in the presence of drug ([5]; +30 mV, C-PAF 185 nM or PMA 100 nM, no peptide): 59.2±10.1 pA/pF
inhibition of TASK-1 current ([5]; +30 mV, PMA 100 nM (n=17), C-PAF 185 nM (n=20)): 19.8±2.7%
TASK-1 current density after drug ([5]; PKCε-inhibitor peptide 100 nM in pipette, C-PAF 185 nM or PMA 100 nM): 41.2±12.3 pA/pF
TASK-1 current density after drug ([5]; scrambled peptide 100 nM in pipette, PMA 100 nM): 36.6±6.2 pA/pF

CCCCC/C=C\C/C=C\C/C=C\C/C=C\CCCC(=O)N[C@H](C)CO [methanandamide]
effect on C-PAF-sensitive current ([1]; held at −10 mV, C-PAF 185 nM, Ba2+ 3 mM, Zn2+ 3 mM, lipids and ATFK 10 μM): inhibited
inhibition of TASK-1 current [8]: approximately 60%
methanandamide-sensitive current with PAFR blocked or absent ([2]; methanandamide 10 μM, CV-6209 100 nM or PAFR KO myocytes): fully effective
quiescent WT myocytes with spontaneous action potentials ([4]; methanandamide 10 μM): 7 of 12
arrhythmias in control cells expressing only GFP [9]: typical arrythmias were observed
arrhythmias in myocytes overexpressing GFP and TREK-1 [9]: unable to induce arrhythmias
